Calls of active or inactive are those of the source. The calls are words filed in the database; no cut-off is given here.
Experiments:
Rattus norvegicus [1] = assay: Antiallergic activity in rat reaginic passive cutaneous anaphylaxis (PCA) test upon peroral administration; type: functional; settings: po, read-out: ID50 (the source's name)
Rattus norvegicus [2] = assay: Antiallergic activity in rat reaginic passive cutaneous anaphylaxis (PCA) test upon intravenous administration; Insoluble; type: functional, organism-based
Rattus norvegicus [3] = assay: Antiallergic activity in rat reaginic passive cutaneous anaphylaxis (PCA) test upon intravenous administration; type: functional; settings: read-out: ID50 (the source's name)
Rattus norvegicus [4] = assay: Antiallergic activity in rat reaginic passive cutaneous anaphylaxis (PCA) test upon peroral administration; NA means inactive; type: functional, organism-based

Row | Structure (SMILES) | ED50 (Rattus norvegicus [1]) [µmol/kg] | ID50 (Rattus norvegicus [2]) | ED50 (Rattus norvegicus [3]) [µmol/kg] | ID50 (Rattus norvegicus [4])
1 | CC1CCC(=NNc2c(Cl)cccc2Cl)c2ncc(C(=O)O)c(=O)n21 (centres undefined) | > 100 | Insoluble | – | –
2 | CC1CCC(=NNc2ccccc2C(=O)O)c2ncc(C(=O)O)c(=O)n21 (centres undefined) | > 100 | – | 0.48 | –
3 | Cc1cccc(C)c1NN=C1CCC(C)n2c1ncc(C(=O)O)c2=O (centres undefined) | 320 | Insoluble | – | –
4 | CNN=C1CCC(C)n2c1ncc(C(=O)O)c2=O (centres undefined) | > 100 | – | 17.5 | –
5 | Cc1c(NN=C2CCC(C)n3c2ncc(C(=O)O)c3=O)c(=O)n(-c2ccccc2)n1C (centres undefined) | > 100 | – | 31 | –
6 | CCc1nc2n(c(=O)c1C(=O)O)C(C)CCC2=NNc1ccccc1 (centres undefined) | > 320 | – | > 100 | –
7 | CC1CCC(C)(N=Nc2ccccc2)c2ncc(C(=O)O)c(=O)n21 (centres undefined) | > 100 | – | 35 | –
8 | CC1CCC(=NNc2ccccc2)c2ncc(C(=O)NO)c(=O)n21 (centres undefined) | > 100 | – | > 100 | –
9 | Cc1cc(NN=C2CCC(C)n3c2ncc(C(=O)O)c3=O)ccc1Br (centres undefined) | > 100 | Insoluble | – | –
10 | CC1CCC(=NNc2ccc(Cl)c(Cl)c2)c2ncc(C(=O)O)c(=O)n21 (centres undefined) | > 100 | – | 0.89 | –
11 | CC1CCC(=NNc2ccccc2)c2ncc(C(=O)O)c(=O)n21 (centres undefined) | 1.2 | – | 0.6 | –
12 | COc1cc(NN=C2CCC(C)n3c2ncc(C(=O)O)c3=O)cc(OC)c1 (centres undefined) | 100 | – | 0.42 | –
13 | Cc1cccc(Cl)c1NN=C1CCC(C)n2c1ncc(C(=O)O)c2=O (centres undefined) | > 100 | Insoluble | – | –
14 | Cc1nc2n(c(=O)c1C(N)=O)C(C)CCC2=NNc1ccccc1 (centres undefined) | > 100 | Insoluble | – | –
15 | CC1CCC(=NNc2ccc3ccccc3c2)c2ncc(C(=O)O)c(=O)n21 (centres undefined) | > 100 | – | 0.77 | –
16 | CC1CCC(=NNc2cccc3ccccc23)c2ncc(C(=O)O)c(=O)n21 (centres undefined) | > 320 | Insoluble | – | –
17 | CC1CCC(=NNc2cc([N+](=O)[O-])cc([N+](=O)[O-])c2)c2ncc(C(=O)O)c(=O)n21 (centres undefined) | > 100 | – | 3.4 | –
18 | CCOC(=O)c1cnc2n(c1=O)C(C)CCC2=NNc1c(C)n(C)n(-c2ccccc2)c1=O (centres undefined) | > 100 | – | 95 | –
19 | CC1CCC(N=Nc2ccccc2C(=O)O)=C2N(C)C=C(C(=O)O)C(=O)N21 (centres undefined) | > 100 | – | > 100 | –
20 | CC1CCC(=NNc2ccccc2C(=O)O)c2ncc(C(=O)NO)c(=O)n21 (centres undefined) | > 100 | – | > 100 | –
21 | CC1CCC(=NNc2cccnc2)c2ncc(C(=O)O)c(=O)n21 (centres undefined) | > 320 | – | 0.54 | –

Row | Structure (SMILES) | ED50 (Rattus norvegicus [1]) [µmol/kg] | ID50 (Rattus norvegicus [2]) | ED50 (Rattus norvegicus [3]) [µmol/kg] | ID50 (Rattus norvegicus [4])
22 | CC1CCC(=NN(C)c2ccccc2)c2ncc(C(=O)O)c(=O)n21 (centres undefined) | > 100 | – | 52.4 | –
23 | Cc1cccc(NN=C2CCC(C)n3c2ncc(C(=O)O)c3=O)c1C (centres undefined) | > 100 | Insoluble | – | –
24 | CC1CCC(=NNc2cc(Cl)ccc2O)c2ncc(C(=O)O)c(=O)n21 (centres undefined) | > 100 | Insoluble | – | –
25 | CC1CCC(N=Nc2ccccc2)=C2N(C)C=C(C(=O)O)C(=O)N21 (centres undefined) | > 100 | Insoluble | – | –
26 | CC1CCC(=NNc2ccccn2)c2ncc(C(=O)O)c(=O)n21 (centres undefined) | > 100 | – | 3.2 | –
27 | CC1CCC(=NNc2ccc(Br)cc2Cl)c2ncc(C(=O)O)c(=O)n21 (centres undefined) | > 100 | Insoluble | – | –
28 | CC1CCC(=NNc2cc(Cl)cc(Cl)c2)c2ncc(C(=O)O)c(=O)n21 (centres undefined) | > 100 | – | 13.3 | –
29 | CC1CC/C(=N\N)c2ncc(C(=O)O)c(=O)n21 (centres undefined) | > 100 | – | 42 | –
30 | CC1CCC(=NNc2ccc(Cl)cc2Cl)c2ncc(C(=O)O)c(=O)n21 (centres undefined) | > 100 | Insoluble | – | –
31 | Cc1cc(C)c(NN=C2CCC(C)n3c2ncc(C(=O)O)c3=O)c(C)c1 (centres undefined) | 320 | Insoluble | – | –
32 | O=C(O)c1cc(=O)c2c(OCC(O)COc3cccc4oc(C(=O)O)cc(=O)c34)cccc2o1 [CROMOLYN SODIUM] | – | – | 1 | inactive
33 | CC1CCC(=NNc2cc(C(F)(F)F)cc(C(F)(F)F)c2)c2ncc(C(=O)O)c(=O)n21 (centres undefined) | > 100 | Insoluble | – | –
34 | CC1CCC(C)(N=Nc2ccccc2C(=O)O)c2ncc(C(=O)O)c(=O)n21 (centres undefined) | > 100 | – | > 100 | –
35 | Cc1ccc(NN=C2CCC(C)n3c2ncc(C(=O)O)c3=O)cc1C (centres undefined) | > 100 | – | 6.5 | –
36 | CCc1nc2n(c(=O)c1C(N)=O)C(C)CCC2=NNc1ccccc1 (centres undefined) | > 100 | Insoluble | – | –
37 | CC1CCC(=NNc2ccc3c(c2)OCO3)c2ncc(C(=O)O)c(=O)n21 (centres undefined) | > 100 | – | 0.33 | –
38 | Cc1cc(C)c(NN=C2CCC(C)n3c2ncc(C(=O)O)c3=O)cc1C (centres undefined) | 320 | Insoluble | – | –
39 | Cc1nc2n(c(=O)c1C(=O)O)C(C)CCC2=NNc1ccccc1 (centres undefined) | > 320 | – | > 100 | –
40 | CC1CCC(=NNc2nn[nH]n2)c2ncc(C(=O)O)c(=O)n21 (centres undefined) | > 100 | – | > 100 | –
41 | COc1cc(OC)c(NN=C2CCC(C)n3c2ncc(C(=O)O)c3=O)cc1Cl (centres undefined) | > 100 | Insoluble | – | –
42 | Cc1cc(C)cc(NN=C2CCC(C)n3c2ncc(C(=O)O)c3=O)c1 (centres undefined) | > 320 | Insoluble | – | –

— ChEMBL document CHEMBL1122265, “Nitrogen bridgehead compounds. 33. New antiallergic 4H-pyrido[1,2-a]pyrimidin-4-ones. 2” (1983)
